The values that follow come from patent EP1530968A1, “Galangin components for the maintenance of bone health and/or treatment, alleviaton and/or prevention of bone disorder” (N.V. Nutricia, priority 2003, dated 2005).

Marks after values point to notes of the source that are not given here.

Series [1] concerns KS483 (mouse pre-osteoblastic cell line). The experiment in a line: Alkaline phosphatase (ALP) activity corrected for DNA in KS483 cells after 18 days exposure. In kind it is cell-based. The note with it: for ALP activity (mean ± SEM): 18 days, corrected for DNA, compared to control levels. On the procedure: (§1) KS483 (mouse pre-osteoblastic cell line, Leids Universitair […] Centrum, Leiden, The Netherlands) was maintained in phenol red-free alpha-minimum essential medium (α-MEM) containing 10% non-charcoal-treated fetal bovine serum (FBS) and penicillin/streptomycin. Cells were seeded in 12-well plates at a density of 4.5x10^4 cells/well, and cultured in phenol red-free α-MEM supplemented with penicillin/streptomycin and 10% charcoal-treated FBS. Cells were exposed to vehicle (0.01 wt.% DMSO) , β-estradiol as a positive control (10^-8 M and 10^-9 M in 0.01 wt.% DMSO) or galangin (10^-5 M, 10^-6 M and 10^-7 M in 0.01 wt.% DMSO) for 18 days. From day 4 ascorbic acid (50μg/ml), and from day 11 β-glycerolphosphate (5mM) were added to the culture medium. Every 3-4 days the medium was changed. At day 18, cells were washed twice with ice-cold phosphate buffered saline (PBS), frozen immediately, and stored at -20°C for further use. The cells were lysed in 400μl SSC (15 mM sodium citrate and 150 mM sodium chloride) with 0.01% sodium dodecyl sulfate (SDS). Alkaline phosphatase (ALP) activity was determined kinetically in 25μl aliquots by colorimetric determination of the produced p-nitrophenol at 405 nm, using 6 mmol/L p-nitrophenylphosphate as a substrate at a 37°C and pH 10.5. To correct the ALP activity determination for cell quantity, the DNA content was measured in 100μl aliquots, using Hoechst 33258 and calibrated against a DNA standard (0.5-10μg/mL salmon sperm DNA). Fluorescence was measured at a wavelength of 355-460 nm. Calcium deposition (see Table 2) was determined using the cresolphthalein complexon method according to Henri et al, 1974 (Clinical Biochemistry. Principles and Techniques. Harper and Row, New York, USA. All chemicals were obtained from Sigma-Aldrich (Zwijndrecht, The Netherlands). TABLE 1

In series [2] the test system is estrogen receptor (ERE) and BMP receptor (BRE). The experiment in a line: Ratio ERE stimulation/BRE stimulation (ERE/BRE ratio) in KS483 cells. The note with it: for ERE/BRE: ratio ERE stimulation/BRE stimulation. Type of series: cell-based, mouse. On the procedure:
(§2) Mouse pre-osteoblastic cell line KS483 was maintained in phenol red-free α-MEM containing 10% non-charcoal-treated FBS and penicillin/streptomycin. Cells were seeded in 24-well plates at a density of 1.6x10^4 cells/well, and cultured in phenol red-free α-MEM supplemented with penicillin/streptomycin and 10% charcoal-treated FBS. After 24 hours, cells were transiently transfected with 0.25 µg luciferase reporter (see below) using a lipid-based FuGENE 6 transfection reagent according to the manufacturer's recommendations (Roche, Almere, Netherlands). Cells were transfected with luciferase reporter, i.e. either estrogen-receptor-responsive element (ERE-Luciferase) or BMP-receptor-responsive element (BRE-Luciferas), hereinafter jointly referred to as luciferase reporter. Transfection efficiency was measured by co-transfection of 25 ng of SV40-Renilla control vector.. The transfection medium was changed after 18 hours into new α-MEM, containing penicillin/streptomycin and 10% charcoal-treated FBS. […] After 48h, cells were washed twice with PBS and frozen at -20°C. Luciferase activity was determined by measuring bioluminescence. Luciferase activity was expressed as fold induction ± SEM, which was corrected for transfection efficiency using sv40-renilla luciferase activity. The measured luciferase activity is indicative for the extent of stimulation of the estrogen receptor or BMP receptor by the test component. Subsequently the ratio ERE stimulation/BRE stimulation (ERE/BRE ratio) was determined, which is indicative for the estrogenic effects of the test component (Table 3).

For the next series, the system named is BMP receptor. The experiment in a line: BRE-Luciferase reporter assay in transiently transfected KS483 cells. Type of series: cell-based, mouse. The note with it: 48h. On the procedure: as §2
(Reporter assays use an easily measured gene product as a stand-in for the process of interest.)

Series [3] concerns KS483 (mouse pre-osteoblastic cell line). The experiment in a line: Calcium deposition in KS483 cells (cresolphthalein complexon method). Type of series: cell-based. The note with it: for Fold increase of calcium (mean ± SEM): 18 days, compared to control levels. On the procedure:
as §1

Series [4] in a line: Body weight, fat percentage, food and water intake and uterus weight in SAMP6 mice. Type of series: in vivo. From the text: (§3) Senescence accelerated mice prone for osteoporosis (SAMP6) and senescence accelerated resistant mice (SAMR) were obtained from Kyoto University, Kyoto, Japan. Mice were bred and kept under specific pathogen free conditions at the Center for small experimental animals in Wageningen. Procedures were approved by the external independent ethical committee for animal care and use (Zeist, The Netherlands). Female SAMP6 mice were randomized on the basis of body weight at the age 20 weeks and divided in 5 groups. […] The galangin was obtained from ICC, Sommerville, NJ, USA. The mice were treated from the age of 22 weeks to the age of 32 weeks. Animals were housed in pairs at 21°C with a 12-hour light/dark cycle in a room without male mice. Until the age of 22 weeks, animals were fed a complete rodent diet, free of flavonoids and isoflavones (RMH-B, Hope Farms, Woerden, The Netherlands). From 22 to 32 weeks of age, animals were fed diets composed according to the RDA of mice (Nutrient requirements of mice, National Academic press, Wahington, USA,1995) and demineralized water. Composition of all diets was identical, except for their galangin contents. All diets and water were supplied ad libitum. Food and water intake and body weight (BW) was registered weekly. Animals were checked daily for abnormal behavior and appearance. […] Implants were replaced after 6 weeks.
(§4) At the age of 22, 25, 28 and 32 weeks, bone mineral density (BMD) and body composition was determined with the aid of Dual energy X-ray absorptiometry (DXA) (Piximus, Lunar Corp, Madison, WI, USA) using the total body mode. Mice were anaesthetized with halothane and front and hind legs were extended. Bone mineral density of the lumbar spine (BMDLS) and the femur (BMDF) were determined within pre-defined regions of interest. Total body fat percentage was determined using the total body mode.

The test system of a further series is estrogen receptor. The experiment in a line: ERE-Luciferase reporter assay in transiently transfected KS483 cells. The note with it: 48h. Type of series: cell-based, mouse. On the procedure:
as §2

A further series has as its system SAMP6 mice. The experiment in a line: Bone mineral density by DXA in senescence accelerated mice prone for osteoporosis (SAMP6). Type of series: in vivo. The note with it: for BMD-LS change ( BMDLS) after 10 weeks of treatment / Bone mineral density of the lumbar spine (BMD-LS): female SAMP6 mice, E subcutaneous implant; for BMD-LS change ( BMDLS) after 10 weeks of treatment: age 22 to 32 weeks.
Description: as §3, §4

The mark [5] stands for this setting: age 22 weeks (before start of the intervention), galangin 0.4 mg per 100 g feed.
Where [6] appears, read: age 25 weeks, treated from 22 weeks, galangin 0.4 mg per 100 g feed.
Setting [7] is: age 28 weeks, treated from 22 weeks, galangin 0.4 mg per 100 g feed.
The mark [8] stands for this setting: age 32 weeks, treated from 22 weeks, galangin 0.4 mg per 100 g feed.
Where [9] appears, read: compared with control group, SAMP6 mice, galangin throughout the study, E from 25 weeks of age onwards.
Setting [10] is: from 25 weeks of age onwards, subcutaneous implant, intact SAMP6-mice.

Regarding `O=c1c(O)c(-c2ccccc2)oc2cc(O)cc(O)c12` [Gal, 3,5,7-trihydroxyflavone], the “ALP activity (mean ± SEM)” value is recorded as 3.7 ± 0.152^a fold induction in series [1] (10^-5M), 1.4 ± 0.055^a fold induction in series [1] (10^-6M) and 1.1 ± 0.071 fold induction in series [1] (10^-7M). The ALP activity result in series [1] (result in words) was “significantly increased”. For the same compound, the ERE/BRE in series [2] (10^-5M) came to 2.0; in series [2] (10^-6M), 1.2; in series [2] (10^-7M), 1.1. Also, in series [2] (galangin ratio as share of the ratio of kaempherol and quercitin), the “ratio ERE/BRE relative to kaempherol and quercitin” value was “less than 50%”. Also, the ERE/BRE ratio result in series [2] (result in words, galangin as compared to kaempherol and quercetin) is on record as “low”. Also, the BRE with BMP receptor (10^-5M) amounted to 2.0 fold induction; with BMP receptor (10^-6M), 0.9 fold induction; in the series with BMP receptor (10^-7M) it was 0.9 fold induction. Moreover, the figures for the “Fold increase of calcium (mean ± SEM)” value in series [3] (10^-5M), in series [3] (10^-6M) and in series [3] (10^-7M) were 2.3 ± 0.160^a fold induction, 1.2 ± 0.132 fold induction and 1.3 ± 0.038 fold induction, respectively. Also, the Calcium deposition entry in series [3] (after treatment, result in words) is “significantly increased”. For the same compound, in series [4] (mouse, in vivo), the fat percentage result is “No statistical differences”. In addition, in series [4] (mouse, in vivo), the “food and water intake” value was “No statistical differences”. Also, the ERE with estrogen receptor (10^-5M) is reported as 3.8 fold induction; in the series with estrogen receptor (10^-6M) it was 1.0 fold induction; in the series with estrogen receptor (10^-7M), 0.9 fold induction. Further, in the series on SAMP6 mice (0.04 mg galangin/100 g food (so in the source), SAMP6 mice), the “loss of BMD-LS during the 10-week intervention period compared with controls” value is “significantly lower”. In addition, the “% inhibition compared to SAMPC” value in the series with SAMP6 mice (BMD-LS change after 10 weeks of treatment, galangin 0.4 mg per 100 g feed, SAMP6 mice) came to 40%. Further, the “BMD-LS compared with controls” value in the series with SAMP6 mice (at 32 weeks, 0.4 mg galangin/100 g feed, SAMP6 mice) is on record as “significantly higher”. Also, the “BMD-LS change ( BMDLS) after 10 weeks of treatment” value in the series with SAMP6 mice (galangin 0.4 mg per 100 g feed) is recorded as -14.1 ^a. Further, the “Bone mineral density of the lumbar spine (BMD-LS)” value is reported as 0.0691 g/cm^2 in the series with SAMP6 mice (setting [5]), 0.0658 g/cm^2 with SAMP6 mice (setting [6]), 0.0621 g/cm^2 with SAMP6 mice (setting [7]) and 0.0601 ^a g/cm^2 in the series with SAMP6 mice (setting [8]).

With `O=c1c(O)c(-c2ccc(O)cc2)oc2cc(O)cc(O)c12` [K, kaemferol], the BRE is 2.4 fold induction in the series on BMP receptor (10^-5M), 1.4 fold induction with BMP receptor (10^-6M) and 1.1 fold induction in the series on BMP receptor (10^-7M).

For `O=c1c(O)c(-c2ccc(O)c(O)c2)oc2cc(O)cc(O)c12` [Q, quercetin], the ERE/BRE in series [2] (10^-5M) amounted to 5.0; in series [2] (10^-6M) it was 1.6; in series [2] (10^-7M), 1.6. Besides, the BRE worked out at 1.6 fold induction with BMP receptor (10^-5M), 1.0 fold induction with BMP receptor (10^-6M) and 0.9 fold induction with BMP receptor (10^-7M). The results for the ERE with estrogen receptor (10^-5M), with estrogen receptor (10^-6M) and with estrogen receptor (10^-7M) were 7.9 fold induction, 1.5 fold induction and 1.4 fold induction, respectively.

With `C[C@]12CC[C@@H]3c4ccc(O)cc4CC[C@H]3[C@@H]1CC[C@@H]2O` [β-E, 17 β-estradiol], the “ALP activity (mean ± SEM)” value in series [1] (10^-8M) was 2.6 ± 0.129^a fold induction; in series [1] (10^-9M) it was 2.5 ± 0.184^a fold induction. Moreover, the ERE/BRE in series [2] (10^-8M) was determined as 8.6; in series [2] (10^-10M), 19.4. Further, the BRE came to 1.0 fold induction in the series on BMP receptor (10^-8M), 1.6 fold induction with BMP receptor (10^-9M) and 1.0 fold induction with BMP receptor (10^-10M). The Uterus weight entry in series [4] (at 32 weeks of age, compared with control group, SAMP6 mice) is on record as “significantly higher”. In addition, in series [4] (setting [9]), the body weight entry is given as “significantly lower”. Also, the fat percentage result in series [4] (setting [9]) is recorded as “significantly lower”. Further, in series [4] (setting [9]), the “food and water intake” value is listed as “significantly lower”. Further, the ERE came out at 9.0 fold induction with estrogen receptor (10^-8M), 15.8 fold induction in the series with estrogen receptor (10^-9M) and 20.2 fold induction in the series with estrogen receptor (10^-10M). The “BMD-LS change ( BMDLS) after 10 weeks of treatment” value with SAMP6 mice (galangin 0.4 mg per 100 g feed) was “+23.4 ^a”. The “Bone mineral density of the lumbar spine (BMD-LS)” value in the series with SAMP6 mice (setting [5]) is reported as 0.0700 g/cm^2; with SAMP6 mice (setting [6]), 0.0774 g/cm^2; in the series with SAMP6 mice (setting [7]), 0.08315 g/cm^2; with SAMP6 mice (setting [8]), 0.0868 ^a g/cm^2. Also, in the series on SAMP6 mice (setting [10]), the BMD-F result is “significantly higher”. Further, the BMD-LS result in the series on SAMP6 mice (setting [10]) is “significantly higher”.
